Reference: patent US11690389B2, “Red beet pigment composition” (priority 2017, dated 2023)
Where two headings read alike, the source gives them in different places.

Key:
[1] = test system: red beet plants (Monty Rz and Belushi Rz); test: Field trials harvested at a single time-point: foliar spraying of red beet plants with egc, betalain pigments and yield data of roots; format: in vivo, red beet (Beta vulgaris L. spp. vulgaris); conditions: for Betalains (g kg^−1 DM) / Betalains (mg kg^−1 FW) Bn / Betalains (mg kg^−1 FW) Vx / Betalains:TSS / Bn:Vx: egc 360 g ha^−1 foliar, roots 16 weeks after sowing
Protocol: (§1) Field trials were conducted at the Hoejbakkegaard (latitude 55, […]; Denmark) in 2015, where three-row plots were arranged in randomized block designs with three replicates. Rainfall was complemented by irrigation throughout red beet growth to avoid water stress. Foliar applications of an ethylene generating compound (egc), 2-chloroethylphosphonic acid (CERONE® brand ETHEPHON, 39.9% active ingredient, Bayer Crop Science, Leverkusen, Germany), at a concentration of 360 g ha^−1 were performed with a CO2 backpack spaced 50 cm apart, using manual spraying equipment designed for agricultural use. Egc application began 5 weeks after sowing and continued every 3 weeks, with a total of five applications. Plants were cultivated in loamy soil using techniques recommended for cultivation and plant protection in red beet crop production.
Trial 1. Plants were grown in plots consisted of 4.5 m-long rows, with a single harvest from the middle part of each row performed 16 weeks after sowing.
(§2) Biological replicates consisting of twenty beetroots were washed and split lengthwise. Of these, one pool of halves was ground and homogenized in a 3% sulfuric acid solution (1/1, w/w), using a Waring® two-speed commercial blender (VWR—Bie & Berntsen, Herlev, Denmark). The resulting fine homogenate was subsequently mixed with demineralized water (1/2, w/w) and vortexed. Finally, the sample was centrifuged for 20 min at 4500 rpm, and the supernatant (extract) was utilized for further analyses.
Bn and Vx were measured spectrophotometrically. The beetroot extract was diluted to a proper concentration in 33 mM KH2PO4 (pH 6.5), and the absorption was measured at 476 nm and 538 nm for Bn and Vx, respectively, using a UV-visible spectrophotometer (Thermo Scientific Evolution™ 220, Waltham, Mass., USA). Bn and Vx concentrations were expressed in mg kg^−1 fresh weight (FW), using the corresponding absorbance, molecular weight and extinction coefficient for Bn and Vx.
TSS was measured with a manual refractometer (Refracto 30PX/GS Mettler-Toledo Inc., OH, USA) operating in the 0% to 85% Brix range. The beetroot extract was filtered through 0.45 μm membrane filters, and Brix measurements were performed using 1 mL of the filtrate.
DM was determined after samples were dried to a constant weight at 100° C. for 24 h, based on the difference in mass between the fresh and dry samples. […] was then expressed as a percentage of the dry matter.

[2] = test system: beet root; conditions: 50 ppm; cited from earlier work
[3] = test system: A. Mangostanus seedlings; conditions: cited from earlier work
[4] = test system: red beet plants (Monty Rz and Belushi Rz); test: Field trial with several harvests: betalain accumulation during root growth after foliar spraying with egc; format: in vivo, red beet (Beta vulgaris L. spp. vulgaris); conditions: for Bn content at peak: 9 weeks after sowing as printed; for Betalains (mg kg^−1 FW) Bn / Betalains (mg kg^−1 FW) Vx / Bn:Vx: egc 360 g ha^−1
Protocol: as §1
Trial 2. Plots consisted of 12 m-long rows, with several harvests from separate row segments performed during growth (3, 6, 9, 12, 15 and 18 weeks after sowing). For further analyses, biological replicates consisted of 20 whole beetroots harvested per plot.
as §2
Bn and Vx were measured spectrophotometrically. The beetroot extract was diluted to a proper concentration in 33 mM KH2PO4 (pH 6.5), and the absorption was measured at 476 nm and 538 nm for Bn and Vx, respectively, using a UV-visible spectrophotometer (Thermo Scientific Evolution™ 220, Waltham, Mass., USA). Bn and Vx concentrations were expressed in mg kg^−1 fresh weight (FW), using the corresponding absorbance, molecular weight and extinction coefficient for Bn and Vx. […]

[5] = Belushi Rz, 3 weeks after sowing
[6] = Belushi Rz, 6 weeks after sowing
[7] = Belushi Rz, 9 weeks after sowing
[8] = Belushi Rz, 12 weeks after sowing
[9] = Belushi Rz, 15 weeks after sowing
[10] = Belushi Rz, 18 weeks after sowing
[11] = Monty Rz, 12 weeks after sowing
[12] = Monty Rz, 15 weeks after sowing
[13] = Monty Rz, 18 weeks after sowing

## O=P(O)(O)CCCl [egc, 2-chloroethylphosphonic acid]
[1]; 16-week-old plants
  Vx content of roots, untreated versus treated plants: did not vary significantly
[1]; Belushi Rz
  increase of Bn:Vx compared with untreated plants: 36%
  increase of betalains:TSS in average: 30%
  increase of root Bn content compared with untreated plants, in average: 20%
[1]; Belushi Rz, egc treated beetroots
  mean Bn:Vx: 6.1
[1]; Field trial 1, Belushi Rz
  Betalains (g kg^−1 DM): 17.4 g kg^−1 DM
  Betalains (mg kg^−1 FW) Bn: 1575 mg kg^−1 FW
  Betalains (mg kg^−1 FW) Vx: 274 mg kg^−1 FW
  Betalains:TSS: 0.126
  Bn:Vx: 5.82
[1]; Field trial 1, Monty Rz
  Betalains (g kg^−1 DM): 21.9 g kg^−1 DM
  Betalains (mg kg^−1 FW) Bn: 2166 mg kg^−1 FW
  Betalains (mg kg^−1 FW) Vx: 386 mg kg^−1 FW
  Betalains:TSS: 0.154
  Bn:Vx: 5.79
[1]; Field trial 2, Belushi Rz
  Betalains (g kg^−1 DM): 15.0 g kg^−1 DM
  Betalains (mg kg^−1 FW) Bn: 1584 mg kg^−1 FW
  Betalains (mg kg^−1 FW) Vx: 247 mg kg^−1 FW
  Betalains:TSS: 0.088
  Bn:Vx: 6.42
[1]; Field trial 2, Monty Rz
  Betalains (g kg^−1 DM): 21.5 g kg^−1 DM
  Betalains (mg kg^−1 FW) Bn: 2458 mg kg^−1 FW
  Betalains (mg kg^−1 FW) Vx: 364 mg kg^−1 FW
  Betalains:TSS: 0.132
  Bn:Vx: 6.88
[1]; Monty Rz
  increase of Bn:Vx compared with untreated plants: 34%
  increase of betalains:TSS in average: 37%
  increase of root Bn content compared with untreated plants: 25%
[1]; Monty Rz, egc treated beetroots
  mean Bn:Vx: 6.3
[1]; both cultivars
  Bn:Vn upon ethephon treatment: increased substantially
  effect on beetroot yield in tons per hectare: no significant effects
  effect on root FW: no significant effects
[1]; both cultivars, 16-week-old plants
  Bn content of roots versus untreated plants: increased
[1]; egc treated beetroots
  DM (dry matter) of beetroots versus untreated roots: lower
  betalain content versus untreated roots: higher
  mean TSS versus untreated roots: lower
[2]
  beta cyanin efflux: promoted
[3]; 0.1 mM
  pigment accumulation in seedlings: did not elicit pigment accumulation
[3]; 1 mM
  pigment accumulation in seedlings: did not elicit pigment accumulation
[3]; 5 mM
  pigment accumulation in seedlings: seemed to have an effect
[4]; Belushi Rz
  Bn:Vx higher in egc treated plants, average over all harvests: 35%
  higher Bn content than untreated, average of all harvests: 10%
  mean root Vx, less in average: 20%
  Bn content at peak: 2577 mg kg^−1 FW
[4]; [5]
  Betalains (mg kg^−1 FW) Bn: 945 mg kg^−1 FW
  Betalains (mg kg^−1 FW) Vx: 24.3 mg kg^−1 FW
  Bn:Vx: 39.0
[4]; [6]
  Betalains (mg kg^−1 FW) Bn: 2577 mg kg^−1 FW
  Betalains (mg kg^−1 FW) Vx: 58.4 mg kg^−1 FW
  Bn:Vx: 45.7
[4]; [7]
  Betalains (mg kg^−1 FW) Bn: 2144 mg kg^−1 FW
  Betalains (mg kg^−1 FW) Vx: 128 mg kg^−1 FW
  Bn:Vx: 17.2
[4]; [8]
  Betalains (mg kg^−1 FW) Bn: 1683 mg kg^−1 FW
  Betalains (mg kg^−1 FW) Vx: 157 mg kg^−1 FW
  Bn:Vx: 11.1
[4]; [9]
  Betalains (mg kg^−1 FW) Bn: 1442 mg kg^−1 FW
  Betalains (mg kg^−1 FW) Vx: 211 mg kg^−1 FW
  Bn:Vx: 6.84
[4]; [10]
  Betalains (mg kg^−1 FW) Bn: 1369 mg kg^−1 FW
  Betalains (mg kg^−1 FW) Vx: 286 mg kg^−1 FW
  Bn:Vx: 4.85
[4]; Monty Rz
  Bn:Vx higher in egc treated plants, average over all harvests: 17%
  higher Bn content than untreated, average of all harvests: 17%
  mean root Vx, less in average: 5%
  Bn content at peak: 2867 mg kg^−1 FW
[4]; Monty Rz, 3 weeks after sowing
  Betalains (mg kg^−1 FW) Bn: 1343 mg kg^−1 FW
  Betalains (mg kg^−1 FW) Vx: 32.3 mg kg^−1 FW
  Bn:Vx: 41.6
[4]; Monty Rz, 6 weeks after sowing
  Betalains (mg kg^−1 FW) Bn: 2867 mg kg^−1 FW
  Betalains (mg kg^−1 FW) Vx: 62.3 mg kg^−1 FW
  Bn:Vx: 46.5
[4]; Monty Rz, 9 weeks after sowing
  Betalains (mg kg^−1 FW) Bn: 2685 mg kg^−1 FW
  Betalains (mg kg^−1 FW) Vx: 180 mg kg^−1 FW
  Bn:Vx: 14.9
[4]; [11]
  Betalains (mg kg^−1 FW) Bn: 2475 mg kg^−1 FW
  Betalains (mg kg^−1 FW) Vx: 239 mg kg^−1 FW
  Bn:Vx: 10.5
[4]; [12]
  Betalains (mg kg^−1 FW) Bn: 2274 mg kg^−1 FW
  Betalains (mg kg^−1 FW) Vx: 304 mg kg^−1 FW
  Bn:Vx: 7.56
[4]; [13]
  Betalains (mg kg^−1 FW) Bn: 2219 mg kg^−1 FW
  Betalains (mg kg^−1 FW) Vx: 455 mg kg^−1 FW
  Bn:Vx: 4.89
[4]; both cultivars, 6 weeks after sowing
  highest Bn:Vx: 46
[4]; both cultivars, at each harvest point, 360 g egc ha−1
  root mass and diameter, untreated versus treated red beets: no significant differences
